{"source": "patent US5804592A", "about": "“Method for improving disturbed behavior and elevating mood in humans” (Unimed Pharmaceuticals, Inc., priority 1997, dated 1998)", "key": {"[1]": {"experiment": "Double blind placebo-controlled crossover study: Cohen-Mansfield Agitation Inventory (CMAI), disturbed behavior", "format": "in vivo, human", "text": "(§1) Each patient in the this example was diagnosed with \"probable\" DAT by a neurologist according to DSM III-R and NINCDS-ARDDA criteria. These generally accepted criteria include deficits in two or more areas of cognition, progressive worsening of memory and other cognitive functions, no disturbances of consciousness, and absence of systemic disorders or other brain disease that in and of themselves could account for the progressive deficits in memory and cognition. (McKhann et al., Neurology, 34: 939-944 (1984). Each patient received physical examination and laboratory examination including complete blood count with differential, liver function tests, thyroid function tests including TSH, iron binding capacity, BUN, creatinine, and electrolytes.\n(§2) Eleven of the patients were on a psychoactive medication before the beginning of dronabinol study and were maintained on the same medication during the study period. Four patients were receiving regular doses of neuroleptics (perphenazine, thiothixene, haloperidol or thioridazine), 4 patients were receiving regular doses of benzodiazepienes (3 lorazepam and one alprazolam), and 8 patients were receiving regular doses of antidepressants. The antidepressants included sertraline (8 patients), trazodone (4 patients) and desipramine (1 patient). Three patients were on both sertraline and trazodone, and one patient was switched from trazodone to doxepin. Antidepressant treatment was initiated at least 4 weeks before the start of the study and the mean duration of antidepressant treatment before study initiation was 7 months. Eleven patients had orders for psychoactive medications as needed (PRN). These included lorazepam in 4 patients and alprazolam, trazodone, doxepin, haloperidol, perphenazine and thioridazine in one patient each. The patients received these medications very rarely, on the average 9.7 doses/6 weeks during the placebo administration and 7.2 doses/6 weeks during dronabinol treatment.\n(§3) A double blind placebo-controlled crossover design was used with each period of study lasting six weeks. Dronabinol or placebo was administered on a fixed dose schedule, 2.5 mg capsule or identically looking placebo capsule every morning and noon. Subjects were randomly assigned to placebo first or dronabinol first groups. Possible side effects were determined every week by asking the primary caregivers if the patient experienced any of a list of possible symptoms. A list of these symptoms observed in twelve patients over seventy weeks is identified in Table 2 below.\n(§4) Baseline measurements were taken the week prior to randomization and treatment initiation. Behavior measures were obtained weekly for the 12 week duration of the trial. Repeated measures on these variables were therefore available for six weeks on dronabinol and six weeks on placebo for each subject.\nThe disturbed behavior was measured by the Cohen-Mansfield Agitation Inventory (CMAI)(Cohen-Mansfieldet al., J. Gerontol. Med. Sci., 44: M77-84 (1989)) which is a widely used instrument with good psychometric properties. Twenty nine items of this inventory are rated by frequency (from 1=never to 7=constantly or almost constantly) and by disruptiveness (from 1=not at all to 5=extremely). For each observation period, the total score was calculated by multiplying the frequency and disruptiveness of individual items and adding the products. The CMAI items observed are identified in Table 3 below.\n(§5) Statistical analysis was performed using Statistix 4.1 (Analytic Software). Repeated measures ANOVA for the 12 weeks of the study was done to test for effects of order, time and treatment on-study variables."}, "[2]": {"experiment": "Double blind placebo-controlled crossover study: Lawton Observed Affect Scale - Past (negative and positive affect)", "format": "in vivo, human", "text": "as §1, §3, §4\nPatients' affect was measured using Lawton Observed Affect Scale - Past (Lawton et al., J. Gerontol. [B], 51B: P3-14 (1996)). This scale consists of six items, three measuring positive affect (pleasure, interest and contentment) and three measuring negative affect (anger, anxiety/fear and depression/sadness) on a 5 point scale (from 1=never to 5=more than 3 time a day). The negative and positive affect scores were calculated by adding scores of the appropriate items.\nas §5"}, "[3]": {"experiment": "Possible side effects determined every week by asking the primary caregivers (Table 2)", "format": "in vivo, human", "text": "as §1, §3"}, "[4]": {"experiment": "Use of as needed (PRN) psychoactive medication during the study", "format": "in vivo, human", "settings": "during dronabinol treatment; placebo administration 9.7", "text": "as §2, with “The patients received these medications very rarely, on the average 9.7 doses/6 weeks during the placebo administration and 7.2 doses/6 weeks during dronabinol treatment.” left out\nA double blind placebo-controlled crossover design was used with each period of study lasting six weeks. […] Possible side effects were determined every week by asking the primary caregivers if the patient experienced any of a list of possible symptoms. […]"}, "[5]": {"settings": "AIDS patients, after dronabinol treatment; Gorter 1991, Beal 1995; cited from earlier work"}, "[6]": {"settings": "four compartment model; Agurell et al. 1986; cited from earlier work"}, "[7]": {"settings": "cited from earlier work"}, "[8]": {"settings": "repeated measures ANOVA, df=1,143"}, "[9]": {"settings": "repeated measures ANOVA, df=5,143, dronabinol/placebo crossover"}, "[10]": {"settings": "decrease during the 12 weeks study period (both phases), df=5,143"}, "[11]": {"settings": "dronabinol first vs placebo first, df=5,143"}, "[12]": {"settings": "repeated measures ANOVA, df=5,143"}, "[13]": {"settings": "12 patients, 2.5 mg capsule every morning and noon, six weeks"}, "[14]": {"settings": "seventy weeks observed, 2.5 mg capsule every morning and noon"}}, "note": "Entries after “also recorded” stand apart in the source; their conditions may differ."}
{"smiles": "CCCCCc1cc(O)c2c(c1)OC(C)(C)[C@@H]1CCC(C)=C[C@@H]21", "note": "(relative stereo) [dronabinol, (6aR-trans)-6a,7,8,10a-tetrahydro-6,6,9-trimethyl-3-pentyl-6H-dibenzo[b,d]pyran-1-ol]", "values": [{"measurement": "Disturbed behavior (CMAI score), change", "setting": "[1]; during dronabinol treatment, 2.5 mg morning and noon, six weeks", "result": "Disturbed behavior decreased during dronabinol treatment"}, {"measurement": "Disturbed behavior (CMAI), persistence of decrease", "setting": "[1]; placebo period following treatment with dronabinol", "result": "this decrease in disturbed behavior persisted during the placebo period following treatment with dronabinol; also recorded: carried over to the following placebo period"}, {"measurement": "CMAI score, F(order×treatment)", "setting": "[1]; [8]", "result": 2.78}, {"measurement": "CMAI score, p for F(order×treatment)", "setting": "[1]; [8]", "result": 0.12}, {"measurement": "CMAI score as percentage of the baseline, F(order×time)", "setting": "[1]; [9]", "result": 2.35}, {"measurement": "CMAI score as percentage of the baseline, p for order×time interaction", "setting": "[1]; [9]", "result": 0.05}, {"measurement": "Disturbed behavior, difference in the second treatment period", "setting": "[1]; second treatment period of crossover", "result": "no difference in the disturbed behavior in the second treatment period"}, {"measurement": "Agitation (CMAI and Observed Affect Scale), change", "setting": "[1]; two scales: CMAI and Observed Affect Scale", "result": "Decreased agitation"}, {"measurement": "Negative affect score, F(time)", "setting": "[2]; [10]", "result": 2.46}, {"measurement": "Negative affect score, p for F(time)", "setting": "[2]; [10]", "result": 0.045}, {"measurement": "Positive affect score, change", "setting": "[2]; dronabinol and placebo treatments, six weeks each", "result": "positive affect remained similar during both treatments; also recorded: did not change the Positive Affect"}, {"measurement": "Negative affect score, decrease by order of treatment", "setting": "[2]; dronabinol first vs placebo first", "result": "the decrease was greater for those who received dronabinol first, compared to those who received placebo first"}, {"measurement": "Negative affect score, F(order×time)", "setting": "[2]; [11]", "result": 5.45}, {"measurement": "Negative affect score, p for F(order×time)", "setting": "[2]; [11]", "result": "< 0.0005"}, {"measurement": "Negative affect score, change vs placebo periods", "setting": "[2]; on dronabinol vs placebo periods", "result": "decreased more while patients were on dronabinol then during the placebo periods"}, {"measurement": "Negative affect score, F(time×treatment)", "setting": "[2]; [12]", "result": 3.98}, {"measurement": "Negative affect score, p for F(time×treatment)", "setting": "[2]; [12]", "result": 0.004}, {"measurement": "Anxiety/nervousness, percentage of total patients", "setting": "[3]; [13]", "result": 92, "unit": "%"}, {"measurement": "Ataxia, percentage of total patients", "setting": "[3]; [13]", "result": 16, "unit": "%"}, {"measurement": "Depression, percentage of total patients", "setting": "[3]; [13]", "result": 16, "unit": "%"}, {"measurement": "Diarrhea, percentage of total patients", "setting": "[3]; [13]", "result": 16, "unit": "%"}, {"measurement": "Emotional lability, percentage of total patients", "setting": "[3]; [13]", "result": 92, "unit": "%"}, {"measurement": "Euphoria, percentage of total patients", "setting": "[3]; [13]", "result": 58, "unit": "%"}, {"measurement": "Flushing, percentage of total patients", "setting": "[3]; [13]", "result": 8, "unit": "%"}, {"measurement": "Hallucination, percentage of total patients", "setting": "[3]; [13]", "result": 33, "unit": "%"}, {"measurement": "Headache, percentage of total patients", "setting": "[3]; [13]", "result": 8, "unit": "%"}, {"measurement": "Increased confusion, percentage of total patients", "setting": "[3]; [13]", "result": 8, "unit": "%"}, {"measurement": "Muscle pain, percentage of total patients", "setting": "[3]; [13]", "result": 16, "unit": "%"}, {"measurement": "Paranoid reaction, percentage of total patients", "setting": "[3]; [13]", "result": 33, "unit": "%"}, {"measurement": "Somnolence, percentage of total patients", "setting": "[3]; [13]", "result": 67, "unit": "%"}, {"measurement": "Sweating, percentage of total patients", "setting": "[3]; [13]", "result": 8, "unit": "%"}, {"measurement": "Tiredness, percentage of total patients", "setting": "[3]; [13]", "result": 75, "unit": "%"}, {"measurement": "Incidence of seizure", "setting": "[3]; dronabinol treated patient", "result": "one"}, {"measurement": "Euphoria as an adverse reaction, frequency vs placebo", "setting": "[3]; dronabinol treatment vs placebo periods", "result": "reported more frequently and in more patients during the dronabinol treatment than during placebo periods"}, {"measurement": "Somnolence, frequency vs placebo", "setting": "[3]; patients treated with dronabinol vs patients on placebo", "result": "twice as common"}, {"measurement": "Anxiety/nervousness, percentage of weeks", "setting": "[3]; [14]", "result": 53, "unit": "%"}, {"measurement": "Ataxia, percentage of weeks", "setting": "[3]; [14]", "result": 8, "unit": "%"}, {"measurement": "Depression, percentage of weeks", "setting": "[3]; [14]", "result": 6, "unit": "%"}, {"measurement": "Diarrhea, percentage of weeks", "setting": "[3]; [14]", "result": 4, "unit": "%"}, {"measurement": "Emotional lability, percentage of weeks", "setting": "[3]; [14]", "result": 46, "unit": "%"}, {"measurement": "Euphoria, percentage of weeks", "setting": "[3]; [14]", "result": 44, "unit": "%"}, {"measurement": "Flushing, percentage of weeks", "setting": "[3]; [14]", "result": 3, "unit": "%"}, {"measurement": "Hallucination, percentage of weeks", "setting": "[3]; [14]", "result": 16, "unit": "%"}, {"measurement": "Headache, percentage of weeks", "setting": "[3]; [14]", "result": 1, "unit": "%"}, {"measurement": "Increased confusion, percentage of weeks", "setting": "[3]; [14]", "result": 3, "unit": "%"}, {"measurement": "Muscle pain, percentage of weeks", "setting": "[3]; [14]", "result": 10, "unit": "%"}, {"measurement": "Paranoid reaction, percentage of weeks", "setting": "[3]; [14]", "result": 23, "unit": "%"}, {"measurement": "Somnolence, percentage of weeks", "setting": "[3]; [14]", "result": 41, "unit": "%"}, {"measurement": "Sweating, percentage of weeks", "setting": "[3]; [14]", "result": 3, "unit": "%"}, {"measurement": "Tiredness, percentage of weeks", "setting": "[3]; [14]", "result": 36, "unit": "%"}, {"measurement": "PRN psychoactive medication doses, average", "setting": "[4]", "result": 7.2, "unit": "doses/6 weeks"}, {"measurement": "Mood / sense of well-being", "setting": "[5]", "result": "elevated mood or sense of well-being"}, {"measurement": "Initial half-life", "setting": "[6]", "result": "four"}, {"measurement": "Terminal half-life", "setting": "[6]", "result": "25 to 36", "unit": "h"}, {"measurement": "Low levels of dronabinol metabolites detected in urine and feces, time", "setting": "[7]; after initiation of a supervised abstinence, Dackis et al. 1982", "result": "2-5 weeks"}, {"measurement": "Presence of tetrahydrocannabinol metabolites in the urine, time after ingestion", "setting": "[7]; urine, after ingestion of marijuana, Ellis et al. 1985", "result": "≤ 77", "unit": "days"}]}
